Measured values published in the supplement of paper PMC10307832.

Columns and labels:
Assay in all cases: relative viability (nuclei count vs DMSO), 5 days (fraction); higher = more cells survive
[1] = compound: CC1=CC(=CC=C1)NC2=NC(=CS2)C3=CC=NC=C3 + COc1cc2c(Oc3ccc(NC(=O)C4(C(=O)Nc5ccc(F)cc5)CC4)cc3F)ccnc2cc1OCCCN1CCOCC1 [Foretinib] (partner 0.25 µM)
Outline: (§1)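 Lung cancer cell lines in 1536-well plates got either a single drug or a fixed anchor-drug dose together with five library-drug doses (not always all listed) in √10 steps, by pin tool, on the day after seeding. Nuclei were counted after 5 days, and relative viability is the treated-to-vehicle ratio of nuclei counts. Values are medians of duplicate plates.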

[2] = compound: CC1=CC(=CC=C1)NC2=NC(=CS2)C3=CC=NC=C3 + CS(=O)(=O)CCNCc1ccc(-c2ccc3ncnc(Nc4ccc(OCc5cccc(F)c5)c(Cl)c4)c3c2)o1 [Lapatinib] (partner 2 µM)
Outline: as §1

Masitinib + OSI-027 = compound: Cc1ccc(NC(=O)c2ccc(CN3CCN(C)CC3)cc2)cc1Nc1nc(-c2cccnc2)cs1 [Masitinib] + COc1cccc2cc(-c3nc([C@H]4CC[C@H](C(=O)O)CC4)n4ncnc(N)c34)[nH]c12 [OSI-027] (partner 0.5 µM)
Outline: as §1

Masitinib + AZD7762 = compound: Cc1ccc(NC(=O)c2ccc(CN3CCN(C)CC3)cc2)cc1Nc1nc(-c2cccnc2)cs1 [Masitinib] + NC(=O)Nc1cc(-c2cccc(F)c2)sc1C(=O)N[C@H]1CCCNC1 [AZD7762] (partner 0.2 µM)
Outline: as §1

| Cell Line | relative viability ([1]; first compound 0.08 µM) | relative viability ([1]; first compound 0.253 µM) | relative viability ([1]; first compound 0.8 µM) | relative viability ([1]; first compound 2.53 µM) | relative viability ([1]; first compound 8 µM) | relative viability ([2]; first compound 0.08 µM) | relative viability ([2]; first compound 0.253 µM) | relative viability ([2]; first compound 0.8 µM) | relative viability ([2]; first compound 2.53 µM) | relative viability ([2]; first compound 8 µM) | relative viability (Masitinib + OSI-027; first compound 0.01 µM) | relative viability (Masitinib + OSI-027; first compound 0.03162 µM) | relative viability (Masitinib + OSI-027; first compound 0.1 µM) | relative viability (Masitinib + OSI-027; first compound 0.3162 µM) | relative viability (Masitinib + OSI-027; first compound 1 µM) | relative viability (Masitinib + AZD7762; first compound 0.01 µM) | relative viability (Masitinib + AZD7762; first compound 0.03162 µM) | relative viability (Masitinib + AZD7762; first compound 0.1 µM) | relative viability (Masitinib + AZD7762; first compound 0.3162 µM) | relative viability (Masitinib + AZD7762; first compound 1 µM) |
| --- | --- | --- | --- | --- | --- | --- | --- | --- | --- | --- | --- | --- | --- | --- | --- | --- | --- | --- | --- | --- |
| NCI-H838 | 0.838 | 0.861 | 0.923 | 1.04 | 0.866 | 0.822 | 0.871 | 0.924 | 0.742 | 0.865 | 0.353 | 0.331 | 0.385 | 0.342 | 0.394 | 0.818 | 0.883 | 0.913 | 0.845 | 0.892 |
| NCI-H1355 | 0.882 | 0.749 | 0.663 | 0.685 | 0.71 | 0.723 | 0.713 | 0.652 | 0.656 | 0.651 | 0.345 | 0.359 | 0.42 | 0.345 | 0.37 | 0.726 | 0.747 | 0.791 | 0.481 | 0.517 |
| NCI-H1395 | 0.859 | 0.918 | 0.933 | 0.958 | 1 | 0.882 | 0.733 | 0.982 | 0.761 | 0.818 | 0.647 | 0.609 | 0.71 | 0.563 | 0.623 | 0.379 | 0.416 | 0.392 | 0.405 | 0.378 |
| NCI-H1437 | 1.16 | 1.21 | 1.11 | 1.27 | 1.12 | 0.772 | 0.626 | 0.684 | 0.479 | 0.545 | 0.768 | 0.936 | 0.899 | 0.879 | 0.858 | 1.09 | 1.12 | 1.22 | 1.07 | 1.06 |
| NCI-H1651 | 0.825 | 0.736 | 0.72 | 0.917 | 0.862 | 0.721 | 0.704 | 0.865 | 0.713 | 0.781 | 0.735 | 0.656 | 0.695 | 0.824 | 0.706 | 0.49 | 0.523 | 0.485 | 0.475 | 0.471 |
| NCI-H1666 | 0.929 | 0.905 | 0.81 | 0.767 | 0.642 | 0.245 | 0.24 | 0.256 | 0.283 | 0.241 |  | 0.861 | 0.921 | 0.792 | 0.833 | 0.763 | 0.743 | 0.806 | 0.527 | 0.816 |
| NCI-H1734 | 0.821 | 0.84 | 0.816 | 0.873 | 0.794 | 0.896 | 1.02 | 1.04 | 0.932 | 0.928 | 0.668 | 0.625 | 0.599 | 0.568 | 0.544 | 0.595 | 0.515 | 0.599 | 0.599 | 0.545 |
| NCI-H1755 | 0.862 | 0.835 | 0.823 | 0.758 | 0.664 | 1.01 | 1.04 | 0.843 | 0.902 | 0.707 |  | 0.703 | 0.686 | 0.687 | 0.649 | 0.404 | 0.452 | 0.468 | 0.45 | 0.479 |
| NCI-H1793 | 0.65 | 0.663 | 0.573 | 0.64 | 0.629 |  | 0.557 | 0.642 | 0.565 | 0.657 | 0.318 | 0.205 | 0.285 | 0.28 | 0.254 | 0.473 | 0.348 | 0.434 | 0.283 | 0.202 |
| NCI-H1915 | 1.05 | 1.1 | 1.06 | 1.07 | 0.977 | 0.91 | 0.892 | 1.01 | 0.876 | 0.823 |  | 0.606 |  | 0.578 | 0.546 |  | 0.734 |  | 0.747 | 0.718 |
| NCI-H1944 | 0.863 | 0.85 | 0.862 | 0.75 | 0.777 | 0.707 | 0.783 | 0.812 | 0.626 | 0.613 |  | 0.423 |  | 0.352 | 0.382 |  | 0.445 |  | 0.485 | 0.431 |
| NCI-H1975 | 0.687 | 0.704 | 0.837 | 0.617 | 0.633 | 0.723 | 0.821 | 0.657 | 0.651 | 0.544 | 0.937 | 0.793 | 0.864 |  | 0.509 | 0.707 | 0.665 | 0.884 | 0.434 | 0.546 |
| NCI-H1993 | 0.684 | 0.635 | 0.649 | 0.703 | 0.669 | 0.685 | 0.802 | 0.7 | 0.869 | 0.778 | 0.533 | 0.533 | 0.489 | 0.541 | 0.514 | 0.786 | 0.625 | 0.753 | 0.745 | 0.684 |
| NCI-H2085 | 0.903 | 0.994 | 0.989 | 0.95 | 0.759 | 0.658 | 0.639 | 0.707 | 0.67 | 0.674 | 0.627 | 0.666 | 0.918 | 0.47 | 0.604 | 0.872 | 0.915 | 0.819 | 0.893 | 0.886 |
| NCI-H2087 | 0.996 | 1.12 | 0.994 | 1.05 | 0.688 | 0.823 | 0.788 | 0.846 | 1.11 | 0.829 | 0.627 | 0.628 | 0.743 | 0.481 | 0.437 | 1.22 | 1.35 | 1.2 | 1.5 | 1.3 |
| NCI-H2126 | 0.858 | 1.11 | 1.08 | 0.982 | 0.862 | 0.593 | 0.667 | 0.68 | 0.594 | 0.572 | 0.697 | 0.727 | 0.653 | 0.602 | 0.657 | 0.884 | 1.07 | 0.97 | 0.973 | 1.11 |
| NCI-H2170 | 0.975 | 1.05 | 0.986 | 0.976 | 0.893 | 0.259 | 0.255 | 0.255 | 0.275 | 0.264 | 0.701 | 0.75 | 0.791 | 0.606 | 0.726 | 0.714 | 0.887 | 1.01 | 0.828 | 0.685 |
| NCI-H2347 | 0.926 | 0.721 | 0.855 | 0.994 | 0.842 | 0.731 | 0.767 | 0.635 | 0.95 | 0.757 | 0.403 | 0.531 | 0.447 | 0.354 | 0.467 | 0.853 | 0.733 | 0.675 | 0.647 | 0.73 |
| NCI-H2405 | 0.914 | 0.942 | 0.786 | 0.99 | 1 | 0.853 | 1 | 0.919 | 0.936 | 0.813 | 0.62 | 0.63 | 0.633 | 0.609 | 0.659 | 0.741 | 0.778 | 0.738 | 0.692 | 0.634 |
| NCI-H3122 | 0.885 | 0.967 | 0.984 | 0.971 | 1.01 | 1.05 | 1.08 | 1.05 | 1.09 | 1.08 |  | 1.38 |  | 0.969 | 1.09 | 0.797 | 0.994 | 0.993 | 0.921 | 0.984 |
| PC-3 [JPC-3] | 0.975 | 0.928 | 0.911 | 0.918 | 0.824 | 0.36 | 0.375 | 0.453 | 0.362 | 0.467 | 0.381 | 0.643 | 0.783 | 0.64 | 0.694 | 0.785 | 0.873 | 0.837 | 0.645 | 0.642 |
| PC-14 | 0.875 | 0.891 | 0.889 | 0.959 | 0.928 | 0.295 | 0.258 | 0.338 | 0.312 | 0.292 | 0.887 | 0.794 | 0.822 | 0.875 | 0.826 | 0.349 | 0.242 | 0.384 | 0.366 | 0.235 |
| RERF-LC-KJ | 0.847 | 0.874 | 0.718 | 0.78 | 0.762 | 0.73 | 0.766 | 0.693 | 0.741 | 0.728 | 0.629 | 0.517 | 0.583 | 0.418 | 0.412 | 0.781 | 0.934 | 0.949 | 0.906 | 0.92 |
